Results taken from patent US20020019395A1, “Indalone and benzimidazolone inhibitors of factor Xa” (priority 2000, published 2002).
pIC50: −log10 of the molar value.

Assays:
Assay type in all cases: biochemical
TRYPSIN = molecular target: T1, TRYPSIN (Bos taurus, UniProt P00760); test: trypsin protease inhibition assay
T1 construct: gene PRSS1
T1 sequence (P00760 24-246): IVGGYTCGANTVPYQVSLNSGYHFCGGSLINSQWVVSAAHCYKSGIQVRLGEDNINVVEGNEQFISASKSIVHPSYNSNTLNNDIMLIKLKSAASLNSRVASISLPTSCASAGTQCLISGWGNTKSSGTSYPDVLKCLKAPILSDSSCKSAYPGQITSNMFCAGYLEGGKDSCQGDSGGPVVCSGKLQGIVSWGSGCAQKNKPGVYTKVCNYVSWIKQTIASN

KALLIKREIN = test: kallikrein protease inhibition assay
thrombin = thrombin (Homo sapiens, UniProt P00734); test: thrombin amidolytic assay (IIA); conditions: substrate Chromozym TH, pH 7.5, room temperature
Experimental: (§1) The compounds of the present invention are dissolved in buffer to give solutions containing concentrations such that assay concentrations range from about 0 to about 100 μM. In the assays for thrombin, prothrombinase and factor Xa, a synthetic chromogenic substrate is added to a solution containing test compound and the enzyme of interest and the residual catalytic activity of that enzyme is determined spectrophotometrically. The IC50 of a compound is determined from the substrate turnover. The IC50 is the concentration of test compound giving about 50% inhibition of the substrate turnover.
(§2) The factor Xa and thrombin assays were performed at room temperature, in 0.02 M Tris.HCl buffer, pH 7.5, containing 0.15 M NaCl. The rates of hydrolysis of the para-nitroanilide substrate S-2765 (Chromogenix) for factor Xa, and the substrate Chromozym TH (Boehringer Mannheim) for thrombin following preincubation of the enzyme with inhibitor for 5 minutes at room temperature, and were determined using the Softmax 96-well plate reader (Molecular Devices), monitored at 405 nm to measure the time dependent appearance of p-nitroaniline.

TPA = TPA (Homo sapiens, UniProt P00750); test: TPA protease inhibition assay
Sequence of TPA (P00750 36-562, species assumed): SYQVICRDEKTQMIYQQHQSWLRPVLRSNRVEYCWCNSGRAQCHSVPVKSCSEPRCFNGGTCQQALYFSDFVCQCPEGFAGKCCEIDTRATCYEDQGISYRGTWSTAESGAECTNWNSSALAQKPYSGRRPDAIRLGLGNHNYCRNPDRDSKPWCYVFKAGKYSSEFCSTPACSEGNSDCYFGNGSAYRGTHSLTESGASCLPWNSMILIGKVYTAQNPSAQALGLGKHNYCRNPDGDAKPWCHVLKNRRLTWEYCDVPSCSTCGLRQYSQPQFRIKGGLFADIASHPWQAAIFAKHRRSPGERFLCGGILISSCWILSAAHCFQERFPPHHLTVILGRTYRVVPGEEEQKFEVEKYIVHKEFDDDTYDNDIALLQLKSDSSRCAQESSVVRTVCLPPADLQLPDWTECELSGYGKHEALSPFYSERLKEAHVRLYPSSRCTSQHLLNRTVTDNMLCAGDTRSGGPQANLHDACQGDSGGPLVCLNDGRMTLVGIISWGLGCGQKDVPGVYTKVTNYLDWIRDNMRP

PLASMIN = PLASMIN (Homo sapiens, UniProt P00747); test: plasmin protease inhibition assay
Sequence of PLASMIN (P00747 581-810 limits assumed, species assumed): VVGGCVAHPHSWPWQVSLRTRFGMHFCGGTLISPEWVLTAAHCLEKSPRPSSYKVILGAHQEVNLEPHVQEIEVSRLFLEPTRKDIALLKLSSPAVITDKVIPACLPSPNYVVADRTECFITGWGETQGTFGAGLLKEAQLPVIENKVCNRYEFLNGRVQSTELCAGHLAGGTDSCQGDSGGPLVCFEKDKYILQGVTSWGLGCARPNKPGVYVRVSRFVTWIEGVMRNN
Sequence of PLASMIN (P00747 97-580 partner limits assumed, species assumed): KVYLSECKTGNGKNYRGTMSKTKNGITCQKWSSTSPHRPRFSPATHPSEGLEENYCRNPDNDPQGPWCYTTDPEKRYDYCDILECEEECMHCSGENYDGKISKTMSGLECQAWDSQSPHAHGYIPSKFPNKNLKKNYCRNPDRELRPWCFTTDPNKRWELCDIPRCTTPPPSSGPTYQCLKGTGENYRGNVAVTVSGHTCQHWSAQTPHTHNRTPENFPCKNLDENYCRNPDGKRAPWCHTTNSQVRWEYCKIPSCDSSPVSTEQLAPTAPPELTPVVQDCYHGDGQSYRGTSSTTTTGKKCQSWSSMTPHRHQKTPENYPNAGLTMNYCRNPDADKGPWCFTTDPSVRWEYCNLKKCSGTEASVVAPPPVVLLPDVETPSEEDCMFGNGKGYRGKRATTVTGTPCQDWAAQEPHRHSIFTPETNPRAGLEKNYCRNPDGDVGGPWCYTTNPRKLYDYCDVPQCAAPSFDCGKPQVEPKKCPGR

APC = APC (Homo sapiens, UniProt P04070); test: APC protease inhibition assay
Sequence of APC (P04070 212-450 limits assumed): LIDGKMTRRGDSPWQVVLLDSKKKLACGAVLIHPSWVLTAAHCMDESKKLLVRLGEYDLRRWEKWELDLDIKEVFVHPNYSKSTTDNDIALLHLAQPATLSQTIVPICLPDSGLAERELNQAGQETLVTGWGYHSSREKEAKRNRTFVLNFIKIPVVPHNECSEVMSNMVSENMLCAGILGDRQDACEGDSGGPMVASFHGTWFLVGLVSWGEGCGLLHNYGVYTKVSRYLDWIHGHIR
Sequence of APC (P04070 43-197 partner limits assumed): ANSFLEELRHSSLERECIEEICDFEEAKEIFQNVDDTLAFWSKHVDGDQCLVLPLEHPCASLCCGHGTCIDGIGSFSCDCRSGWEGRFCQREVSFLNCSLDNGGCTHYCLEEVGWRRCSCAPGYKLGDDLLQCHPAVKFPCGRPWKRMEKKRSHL

factor Xa = factor Xa (Homo sapiens, UniProt P00742); test: factor Xa amidolytic assay (XA); conditions: substrate S-2765, pH 7.5, room temperature
Sequence of factor Xa (P00742 235-488 limits assumed): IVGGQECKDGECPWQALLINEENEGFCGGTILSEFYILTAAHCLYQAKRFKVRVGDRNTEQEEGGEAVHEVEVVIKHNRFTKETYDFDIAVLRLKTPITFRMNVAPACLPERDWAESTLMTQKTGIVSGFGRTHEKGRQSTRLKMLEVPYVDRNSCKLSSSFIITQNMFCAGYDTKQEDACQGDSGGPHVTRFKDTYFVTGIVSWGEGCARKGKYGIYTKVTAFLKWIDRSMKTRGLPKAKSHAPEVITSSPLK
Sequence of factor Xa (P00742 41-179 partner limits assumed): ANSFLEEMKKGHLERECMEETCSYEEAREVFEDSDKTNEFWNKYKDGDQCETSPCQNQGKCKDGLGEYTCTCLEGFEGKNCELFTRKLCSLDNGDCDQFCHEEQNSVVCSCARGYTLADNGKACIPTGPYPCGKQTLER
Experimental: as §1, §2

prothrombinase complex = prothrombinase complex (Homo sapiens, UniProt P00742); test: prothrombinase inhibition assay (IIASE), plasma free system; conditions: factor Xa 0.5 nM, factor Va 2 nM, phospholipid, Chromozym TH
Sequence of prothrombinase complex (P00742 235-488 limits assumed): as the sequence (P00742 235-488 limits assumed) above
Sequence of prothrombinase complex (P00742 41-179 partner limits assumed): as the sequence (P00742 41-179 partner limits assumed) above
Sequence of prothrombinase complex (P12259 29-737 partner limits assumed): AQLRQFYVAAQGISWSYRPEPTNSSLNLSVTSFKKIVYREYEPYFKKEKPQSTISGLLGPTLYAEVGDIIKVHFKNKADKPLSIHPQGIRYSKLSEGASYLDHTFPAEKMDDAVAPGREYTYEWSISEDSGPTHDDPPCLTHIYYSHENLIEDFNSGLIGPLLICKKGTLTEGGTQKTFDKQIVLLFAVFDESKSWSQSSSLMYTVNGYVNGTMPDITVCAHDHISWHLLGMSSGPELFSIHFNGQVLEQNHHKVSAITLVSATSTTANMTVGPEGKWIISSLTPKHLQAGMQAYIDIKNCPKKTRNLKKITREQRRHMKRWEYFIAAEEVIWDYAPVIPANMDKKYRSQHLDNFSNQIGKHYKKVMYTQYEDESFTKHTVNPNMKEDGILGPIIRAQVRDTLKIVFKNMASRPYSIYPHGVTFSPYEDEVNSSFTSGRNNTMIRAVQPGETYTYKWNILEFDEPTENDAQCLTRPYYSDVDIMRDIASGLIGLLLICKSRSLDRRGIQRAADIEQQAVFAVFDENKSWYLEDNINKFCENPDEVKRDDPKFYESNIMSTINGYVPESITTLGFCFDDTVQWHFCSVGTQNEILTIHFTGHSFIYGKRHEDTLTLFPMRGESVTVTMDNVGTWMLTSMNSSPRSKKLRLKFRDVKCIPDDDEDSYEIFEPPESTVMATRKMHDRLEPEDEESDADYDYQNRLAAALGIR
Sequence of prothrombinase complex (P12259 1574-2224 partner limits assumed): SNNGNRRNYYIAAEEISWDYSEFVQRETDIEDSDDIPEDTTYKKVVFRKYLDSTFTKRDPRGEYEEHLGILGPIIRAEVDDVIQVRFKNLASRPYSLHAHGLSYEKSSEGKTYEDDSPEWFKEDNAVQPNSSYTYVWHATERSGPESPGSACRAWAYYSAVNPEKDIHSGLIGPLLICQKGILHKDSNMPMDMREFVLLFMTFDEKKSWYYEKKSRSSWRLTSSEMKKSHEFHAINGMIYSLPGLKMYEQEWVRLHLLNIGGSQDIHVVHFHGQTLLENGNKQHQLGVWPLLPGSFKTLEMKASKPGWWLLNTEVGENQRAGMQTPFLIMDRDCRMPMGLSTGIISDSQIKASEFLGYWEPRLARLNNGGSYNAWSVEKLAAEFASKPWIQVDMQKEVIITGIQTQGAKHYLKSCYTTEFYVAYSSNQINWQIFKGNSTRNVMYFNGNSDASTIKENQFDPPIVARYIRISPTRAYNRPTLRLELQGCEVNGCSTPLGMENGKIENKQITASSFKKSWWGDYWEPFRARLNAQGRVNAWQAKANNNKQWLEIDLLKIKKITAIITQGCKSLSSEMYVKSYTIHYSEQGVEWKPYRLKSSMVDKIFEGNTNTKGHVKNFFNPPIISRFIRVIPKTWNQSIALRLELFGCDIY
Experimental: as §1
The prothrombinase inhibition assay was performed in a plasma free system with modifications to the method described by Sinha, U. et al., Thromb. Res., 75, 427-436 (1994). Specifically, the activity of the prothrombinase complex was determined by measuring the time course of thrombin generation using the p-nitroanilide substrate Chromozym TH. The assay consists of preincubation (5 minutes) of selected compounds to be tested as inhibitors with the complex formed from factor Xa (0.5 nM), factor Va (2 nM), phosphatidyl serine:phosphatidyl choline (25:75, 20 μM) in 20 mM Tris.HCl buffer, pH 7.5, containing 0.15 M NaCl, 5 mM CaCl2 and 0.1% bovine serum albumin. Aliquots from the complex-inhibitor mixture were added to prothrombin (1 nM) and Chromozym TH (0.1 mM). The rate of substrate cleavage was monitored at 405 nm for two minutes. Eight different concentrations of inhibitor were assayed in duplicate. A standard curve of thrombin generation by an equivalent amount of untreated complex was used for determination of percent inhibition.

Row | pIC50 (TRYPSIN) | pIC50 (KALLIKREIN) | pIC50 (thrombin) | pIC50 (TPA) | pIC50 (PLASMIN) | pIC50 (APC) | pIC50 (factor Xa) | pIC50 (prothrombinase complex) | Compound
1 | 7.09 | 5.87 | 3.58 | 4.27 | 5.37 | 5.09 | 7.97 | 6.99 | CC(=N)N1CCC(Oc2ccc3c(c2)n(Cc2ccc4ccc(C(=N)N)cc4c2)c(=O)n3CC(=O)OCC(C)C)CC1 [Example 12]
2 | 7.36 | 5.90 | 4.22 | 4.37 | 5.57 | 5.19 | 7.75 | 6.60 | CC(C)COC(=O)Cn1c(=O)n(Cc2ccc3ccc(C(=N)N)cc3c2)c2cc(OC3CCN(C(=N)N)CC3)ccc21 [Example 13]
3 | 6.88 | 6.29 | 3.54 | 4.00 | 5.05 | 4.80 | 7.69 | 7.65 | CC(=N)N1CCC(Oc2ccc3[nH]c(=O)n(Cc4ccc5ccc(C(=N)N)cc5c4)c3c2)CC1 [Example 4]
4 | 6.72 | 5.53 |  | 4.06 | 5.22 | 4.71 | 8.09 | 6.32 | CC(=N)N1CCC(Oc2ccc3c(c2)n(Cc2ccc4ccc(C(=N)N)cc4c2)c(=O)n3CC(=O)O)CC1 [Example 14]
5 | 6.39 |  | 6.57 |  |  |  | 4.85 | 6.28 | CCn1c(Cn2c(=O)[nH]c3ccc(OC4CCN(C(C)=N)CC4)cc32)cc2ccc(C(=N)N)cc21 [Example 17]
6 | 6.41 | 6.41 | 4.83 | 4.03 | 5.65 | 5.73 | 7.30 | 6.08 | CC(C)n1c(=O)n(Cc2ccc3ccc(C(=N)N)cc3c2)c2cc(OC3CCN(C(=N)N)CC3)ccc21 [Example 9]
7 | 7.49 | 6.21 | 4.61 | 4.50 | 5.53 | 5.19 | 7.49 | 6.40 | Cn1c(=O)n(Cc2ccc3ccc(C(=N)N)cc3c2)c2cc(OC3CCN(C(=N)N)CC3)ccc21 [Example 7]
8 | 7.25 | 6.23 | 4.49 | 4.44 | 5.44 | 5.12 | 7.57 | 6.37 | CC(=N)N1CCC(Oc2ccc3c(c2)n(Cc2ccc4ccc(C(=N)N)cc4c2)c(=O)n3C)CC1 [Example 6]
9 | 6.29 |  | 6.52 |  |  |  | 5.75 | 6.33 | CCn1c(Cn2c(=O)[nH]c3ccc(OC4CCN(C(=N)N)CC4)cc32)cc2ccc(C(=N)N)cc21 [Example 18]
10 | 6.46 | 6.46 | 4.52 | 4.11 | 5.46 | 5.61 | 7.54 | 6.37 | CC(=N)N1CCC(Oc2ccc3c(c2)n(Cc2ccc4ccc(C(=N)N)cc4c2)c(=O)n3C(C)C)CC1 [Example 8]
11 | 6.79 | 5.04 |  | 3.77 | 4.77 | 4.30 | 7.17 | 5.37 | N=C(N)c1ccc2ccc(Cn3c(=O)n(CC(=O)O)c4ccc(OC5CCN(C(=N)N)CC5)cc43)cc2c1 [Example 15]

Row | Compound | pIC50 (TRYPSIN) | pIC50 (KALLIKREIN) | pIC50 (thrombin) | pIC50 (TPA) | pIC50 (PLASMIN) | pIC50 (APC) | pIC50 (factor Xa) | pIC50 (prothrombinase complex)
12 | N=C(N)c1ccc(Cn2c(=O)[nH]c3ccc(OC4CCN(C(=N)N)CC4)cc32)cc1 [Example 1] | 4.66 | 5.02 | 3.48 |  |  | 4.00 | 5.04 | 
